Measurements reported in patent US20230017532A1 (Hoffmann-La Roche Inc., priority 2018, published 2023).
Structures can show the parent of a compound that is named as a salt.

System: Acinetobacter baumannii ATCC17978
Assay: Antimicrobial susceptibility testing: 90% growth inhibitory concentration (IC90) determination, Iso-Sensitest broth, OD 600 nm
Assay type: cell-based
Details: Acinetobacter baumannii, ATCC17978, 16 h, 90% growth inhibitory concentration, Acinetobacter baumannii ATCC17978, Iso-Sensitest broth, OD 600 nm over 16 h; read-out: ATCC 17978 IC90
Procedure, shortened: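 Growth of bacteria (~5×10^5 CFU/ml, Iso-Sensitest medium, 35±2 °C) was followed by OD at 600 nm at 20-min intervals over 16 h against a 10-point twofold compound series (e.g. 50–0.097 μM final). Concentration giving 90% inhibition in log phase was reported.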

Compound	IC90
Cc1cc(Nc2nccn3c(-c4ccc(OC(F)F)cc4)cnc23)ccc1C(=O)NCCOCCO [Example 129, 4-[[3-[4-(difluoromethoxy)phenyl]imidazo [1,2-a]pyrazin-8-yl]amino]-N-[2-(2-hydroxyethoxy)ethyl]-2-methylbenzamide]	720 nM
COc1ccc(-c2cnc3c(Nc4ccc(C(=O)NCCOCCN)c(Br)c4)nccn23)c(F)c1F [Example 167, N-[2-(2-aminoethoxy)ethyl]-2-bromo-4-[[3-(2,3-difluoro-4-methoxyphenyl)imidazo[1,2-a]pyrazin-8-yl]amino] benzamide; formic acid]	52 nM
COc1ccc(-c2cnc3c(Nc4ccc(C(=O)NCCNCCC[C@H](N)C(=O)O)c(C)c4)nccn23)c(F)c1F [Example 189, (2S)-2-amino-5-[2-[[4-[[3-(2,3-difluoro-4-methoxyphenyl)imidazo[1,2-a]pyrazin-8-yl]amino]-2-methyl-benzoyl]amino]ethylamino] pentanoic acid]	2400 nM
Cc1cc(Nc2nccn3c(-c4ccc(OC(F)F)cc4)cnc23)ccc1C(=O)NCCNCCN [Example 101, N-[2-(2-aminoethylamino)ethyl]-4-[[3-[4-(difluoromethoxy)phenyl]imidazo [1,2-a]pyrazin-8-yl]amino]-2-methylbenzamide; hydrochloride]	440 nM
CNCCOCCNC(=O)c1ccc(Nc2nccn3c(-c4ccc(OC)cc4)cnc23)cc1C [Example 39, 4-((3-(4-methoxyphenyl)imidazo[1,2-a]pyrazin-8-yl)amino)-2-methyl-N-(2-(2-(methylamino)ethoxy)ethyl)benzamide]	260 nM
N#CCOc1ccc(-c2cnc3c(Nc4ccc(C(=O)NCCOCCN5CCNC(C(=O)O)C5)c(Cl)c4)nccn23)c(F)c1F (centres unmarked) [Example 177, 4-[2-[2-[[2-chloro-4-[[3-[4-(cyanomethoxy)-2,3-difluorophenyl]imidazo[1,2-a]pyrazin-8-yl]amino]benzoyl]amino]ethoxy]ethyl]piperazine-2-carboxylic acid; formic acid]	2300 nM
CCc1cc(Nc2nccn3c(-c4ccc(OCC#N)c(F)c4F)cnc23)ccc1C(=O)NCCOCCN(C)C [Example 21, 4-[[3-[4-(cyanomethoxy)-2,3-difluoro-phenyl]imidazo[1,2-a]pyrazin-8-yl]amino]-N-[2-[2-(dimethylamino)ethoxy]ethyl]-2-ethyl-benzamide]	160 nM
COc1ccc(-c2cnc3c(Nc4ccc(C(=O)NCCCOCC(=O)N5CCNCC5)c(C)c4)nccn23)cc1F [Example 118, 4-[[3-(3-fluoro-4-methoxyphenyl)imidazo[1,2-a]pyrazin-8-yl]amino]-2-methyl-N-[3-(2-oxo-2-piperazin-1-ylethoxy)propyl] benzamide; hydrochloride]	600 nM
C#CCOc1ccc(-c2cnc3c(Nc4ccc(C(=O)NCCCNCCO)c(CC)c4)nccn23)c(F)c1F [Example 73, 4-[[3-(2,3-difluoro-4-prop-2-ynoxy-phenyl)imidazo[1,2-a]pyrazin-8-yl]amino]-2-ethyl-N-[3-(2-hydroxyethylamino)propyl]benzamide]	170 nM
COc1ccc(-c2cnc3c(Nc4ccc(C(=O)NCCOCCN5CCC(F)CC5)c(C)c4)nccn23)cc1 [Example 43, N-(2-(2-(4-fluoropiperidin-1-yl)ethoxy)ethyl)-4-((3-(4-methoxyphenyl)imidazo[1,2-a]pyrazin-8-yl)amino)-2-methylbenzamide]	290 nM
COc1ccc(-c2cnc3c(Nc4ccc(C(=O)NCCOCCN5CCNCC5)c(Cl)c4)nccn23)c(F)c1F [Example 1, 2-chloro-4-[[3-(2,3-difluoro-4-methoxyphenyl)imidazo[1,2-a]pyrazin-8-yl]amino]-N-[2-(2-piperazin-1-ylethoxy)ethyl]benzamide;2,2,2-trifluoroacetic acid]	120 nM
CCc1cc(Nc2nccn3c(-c4ccc(Cl)c(F)c4F)cnc23)ccc1C(=O)NCCSCCN [Example 159, N-[2-(2-aminoethyl-sulfanyl)ethyl]-4-[[3-(4-chloro-2,3-difluorophenyl)imidazo[1,2-a]pyrazin-8-yl]amino]-2-ethylbenzamide]	210 nM
COc1ccc(-c2cnc3c(Nc4ccc(C(=O)NCCOCCNC(C)=O)c(C)c4)nccn23)cc1 [Example 120, N-[2-(2-acetamidoethoxy)ethyl]-4-[[3-(4-methoxyphenyl)imidazo[1,2-a]pyrazin-8-yl]amino]-2-methylbenzamide]	620 nM
CN(CCOCCN1CCCC(C(=O)O)C1)C(=O)c1ccc(Nc2nccn3c(-c4ccc(OCC#N)c(F)c4F)cnc23)cc1Cl (centres unmarked) [Example 176, 1-[2-[2-[[2-chloro-4-[[3-[4-(cyanomethoxy)-2,3-difluorophenyl]imidazo[1,2-a]pyrazin-8-yl]amino]benzoyl]-methylamino]ethoxy]ethyl] piperidine-3-carboxylic acid; formic acid]	1200 nM
COc1ccc(-c2cnc3c(Nc4ccc(C(=O)NCCOCCN5CC6(COC6)C5)c(C)c4)nccn23)cc1 [Example 42, N-(2-(2-(2-oxa-6-azaspiro[3.3]heptan-6-yl)ethoxy)ethyl)-4-((3-(4-methoxyphenyl)imidazo[1,2-a]pyrazin-8-yl)amino)-2-methylbenzamide]	250 nM
CC(=O)NCCOCCNC(=O)c1ccc(Nc2nccn3c(-c4ccc(OC(F)F)cc4)cnc23)cc1C [Example 98]	420 nM
CCc1cc(Nc2nccn3c(-c4ccc(OC)c(F)c4F)cnc23)ccc1C(=O)NCCOCCN(C)CC(=O)O [Example 52, N-(2-(2-(4-((3-(2,3-difluoro-4-methoxyphenyl)imidazo[1,2-a]pyrazin-8-yl)amino)-2-ethylbenzamido)ethoxy)ethyl)-N-methylglycine hydrochloride]	320 nM
CCc1cc(Nc2nccn3c(-c4ccc(OC(F)F)c(F)c4F)cnc23)ccc1C(=O)NCCNCCN [Example 170, N-[2-(2-aminoethylamino)ethyl]-4-[[3-[4-(difluoro-methoxy)-2,3-difluorophenyl]imidazo[1,2-a]pyrazin-8-yl]amino]-2-ethylbenzamide; hydrochloride]	280 nM
COc1ccc(-c2cnc3c(Nc4cc(F)c(C(=O)NCCOCCN)c(F)c4)nccn23)c(F)c1F [Example 59, N-(2-(2-aminoethoxy)ethyl)-4-((3-(2,3-difluoro-4-methoxy-phenyl)imidazo[1,2-a]pyrazin-8-yl)amino)-2,6-difluoro-benzamide]	130 nM
COc1ccc(-c2cnc3c(Nc4ccc(C(=O)NCCOCCN5CCOCC5)c(C)c4)nccn23)cc1 [Example 106, 4-[[3-(4-methoxyphenyl)imidazo[1,2-a]pyrazin-8-yl]amino]-2-methyl-N-[2-(2-morpholin-4-ylethoxy)ethyl] benzamide]	480 nM
Cc1cc(Nc2nccn3c(-c4ccc(OC(F)F)cc4)cnc23)ccc1C(=O)NCCOCCOCCN [Example 16, N-(2-(2-(2-aminoethoxy)ethoxy)ethyl)-4-((3-(4-(difluoromethoxy)phenyl)imidazo[1,2-a]pyrazin-8-yl)amino)-2-methylbenzamide]	570 nM
COc1ccc(-c2cnc3c(Nc4ccc(C(=O)N(C)CCOCCN5CCOC(CN)C5)c(C)c4)nccn23)cc1F (centres unmarked) [Example 137, N-[2-[2-[2-(aminomethyl)morpholin-4-yl]ethoxy]ethyl]-4-[[3-(3-fluoro-4-methoxyphenyl)imidazo[1,2-a]pyrazin-8-yl]amino]-N,2-dimethyl-benzamide; hydrochloride]	940 nM
Cc1cc(Nc2nccn3c(-c4ccc(OC(F)F)cc4)cnc23)ccc1C(=O)NCCOCCS(C)(=O)=O [Example 132, 4-[[3-[4-(difluoro-methoxy)phenyl]imidazo [1,2-a]pyrazin-8-yl]amino]-2-methyl-N-[2-(2-methylsulfonyl-ethoxy)ethyl] benzamide]	780 nM
CN(CCOCCN1CCNCC1)C(=O)c1ccc(Nc2nccn3c(-c4ccc(OC(F)F)cc4)cnc23)cc1Cl [Example 162, 2-chloro-4-[[3-[4-(difluoromethoxy)phenyl]imidazo [1,2-a]pyrazin-8-yl]amino]-N-methyl-N-[2-(2-piperazin-1-yl-ethoxy)ethyl] benzamide; hydrochloride]	540 nM

Same assay, conditions: Acinetobacter baumannii, ATCC17978, 16 h, read-out: ATCC 17978 IC90

Compound	IC90
Cc1cc(Nc2nccn3c(-c4ccc(F)c(F)c4F)cnc23)ccc1C(=O)NCCOCCN [Example 37, N-(2-(2-aminoethoxy)ethyl)-2-methyl-4-((3-(2,3,4-trifluorophenyl)imidazo[1,2-a]pyrazin-8-yl)amino)benzamide hydrochloride]	370 nM
COc1ccc(-c2cnc3c(Nc4ccc(C(=O)NCCOCCN)c(C)c4)nccn23)cc1Cl [Example 30, N-(2-(2-aminoethoxy)ethyl)-4-((3-(3-chloro-4-methoxyphenyl)imidazo[1,2-a]pyrazin-8-yl)amino)-2-methylbenzamide hydrochloride]	140 nM
CCc1cc(Nc2nccn3c(-c4ccc(OC)c(F)c4F)cnc23)ccc1C(=O)NCCOCCNCC(=O)O [Example 70, 2-[2-[2-[[4-[[3-(2,3-difluoro-4-methoxy-phenyl)imidazo[1,2-a]pyrazin-8-yl]amino]-2-ethyl-benzoyl]amino]ethoxy]ethylamino]acetic acid; formic acid]	490 nM
COc1ccc(-c2cnc3c(Nc4ccc(C(=O)N(C)CCOCCN)c(C)c4)nccn23)cc1 [Example 24, N-(2-(2-aminoethoxy)ethyl)-4-((3-(4-methoxyphenyl)imidazo[1,2-a]pyrazin-8-yl)amino)-N,2-dimethylbenzamide hydrochloride]	430 nM
CCc1cc(Nc2nccn3c(-c4ccc(OC)c(F)c4F)cnc23)ccc1C(=O)NCCOCCOCCN [Example 65, N-(2-(2-(2-Aminoethoxy)ethoxy)ethyl)-4-((3-(2,3-difluoro-4-methoxyphenyl)imidazo[1,2-a]pyrazin-8-yl)amino)-2-ethylbenzamide dihydrochloride]	72 nM
